Assay results from US20070049593A1 (priority 2004, published 2007).
Structures can show the parent of a compound that is named as a salt.

Molecular target: T1, HCV polymerase (Hepatitis C virus genotype 1b, UniProt P26663)
T1 construct: a region encoding NS5B (J Virol 1991 March, 65(3), 1105-13, 544 amino acids after deletion of 47 amino acids on the C-terminal); 6xHis (C); made in house; host or cells: Escherichia coli
Assay: biochemical
Design: species or system HCV BK strain
Conditions: not given
In short: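 Recombinant HCV BK-strain NS5B (C-terminal 47 aa deleted, His6-tagged, E. coli), 0.5 μg/ml, run with 5 μg/ml in vitro-transcribed RNA template (polyU/3′X), ATP/GTP/CTP 50 μM, UTP 2 μM plus [3H]UTP, pH 7.5, 25° C, 90 min. TCA-precipitated RNA counted by scintillation; IC50 from activity with vs without compound.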

T1 sequence (P26663 2420-2963): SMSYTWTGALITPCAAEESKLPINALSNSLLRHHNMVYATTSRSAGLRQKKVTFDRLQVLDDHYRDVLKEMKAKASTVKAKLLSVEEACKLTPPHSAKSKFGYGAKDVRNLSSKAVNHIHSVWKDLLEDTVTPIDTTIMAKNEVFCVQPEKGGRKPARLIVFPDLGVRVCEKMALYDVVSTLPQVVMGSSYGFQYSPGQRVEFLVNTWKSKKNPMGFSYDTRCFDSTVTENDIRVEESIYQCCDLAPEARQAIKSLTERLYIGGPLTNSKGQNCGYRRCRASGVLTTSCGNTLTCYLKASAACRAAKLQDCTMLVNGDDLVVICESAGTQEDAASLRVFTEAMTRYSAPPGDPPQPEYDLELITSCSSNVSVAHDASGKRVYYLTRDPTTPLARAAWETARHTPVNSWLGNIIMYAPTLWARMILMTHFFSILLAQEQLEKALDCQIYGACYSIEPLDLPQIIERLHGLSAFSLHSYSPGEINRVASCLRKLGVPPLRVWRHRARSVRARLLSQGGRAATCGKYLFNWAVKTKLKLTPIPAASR

SMILES | IC50 [µM]
COCC(NC(=O)c1ccc2c(C3CCCCC3)c3n(c2c1)CCOc1cc(OC)ccc1-3)C(=O)N1CCC(O)CC1 (stereo not shown) [Example 2-368, N-[2-(4-hydroxypiperidin-1-yl)-1-methoxymethyl-2-oxoethyl]-12-cyclohexyl-3-methoxy-6,7-dihydro-5-oxa-7a-azadibenzo[a,e]azulene-9-carboxamide] | < 0.1
COc1ccc2c(c1)OCCn1c-2c(C2CCCCC2)c2ccc(C(=O)N[C@@H](Cc3ccc(OCc4ccccc4)cc3)c3nccs3)cc21 [Example 2-369, N—(S)-[2-(4-benzyloxyphenyl)-1-(thiazol-2-yl)ethyl]-12-cyclohexyl-3-methoxy-6,7-dihydro-5-oxa-7a-azadibenzo[a,e]azulene-9-carboxamide] | < 0.1
COc1ccc2c(c1)OCCn1c-2c(C2CCCCC2)c2ccc(C(=O)NC(C)(C)c3nc4cc(-c5nc(C)no5)ccc4[nH]3)cc21 [Example 2-370, N-(1-methyl-1-[5-(3-methyl-1,2,4-oxadiazol-5-yl)-1H-benzimidazol-2-yl]ethyl}-12-cyclohexyl-3-methoxy-6,7-dihydro-5-oxa-7a-azadibenzo[a,e]azulene-9-carboxamide] | < 0.1
COc1ccc2c(c1)OCCn1c-2c(C2CCCCC2)c2ccc(C(=O)N[C@@H](CCC(N)=O)C(=O)OC(C)(C)C)cc21 [Example 2-371, tert-butyl (S)-4-carbamoyl-2-[(12-cyclohexyl-3-methoxy-6,7-dihydro-5-oxa-7a-azadibenzo[a,e]azulene-9-carbonyl)amino]butyrate] | < 0.1
COc1ccc2c(c1)OCCn1c-2c(C2CCCCC2)c2ccc(C(=O)N[C@@H](CCC(N)=O)C(=O)O)cc21 [Example 2-372, (S)-4-carbamoyl-2-[(12-cyclohexyl-3-methoxy-6,7-dihydro-5-oxa-7a-azadibenzo[a,e]azulene-9-carbonyl)amino]butyric acid] | < 0.1
COC(=O)[C@H](Cc1ccc(O)cc1)NC(=O)c1ccc2c(C3CCCCC3)c3n(c2c1)CCOc1cc(OC)ccc1-3 [Example 2-373, methyl (S)-2-[(12-cyclohexyl-3-methoxy-6,7-dihydro-5-oxa-7a-azadibenzo[a,e]azulene-9-carbonyl)amino]-3-(4-hydroxyphenyl)propionate] | < 0.1
COC(=O)C(Cc1ccc(C(F)(F)F)cc1)NC(=O)c1ccc2c(C3CCCCC3)c3n(c2c1)CCOc1cc(OC)ccc1-3 (stereo not shown) [Example 2-374, methyl 2-[(12-cyclohexyl-3-methoxy-6,7-dihydro-5-oxa-7a-azadibenzo[a,e]azulene-9-carbonyl)amino]-3-(4-trifluoromethylphenyl)propionate] | < 0.1
COc1ccc2c(c1)OCCn1c-2c(C2CCCCC2)c2ccc(C(=O)N[C@@H](Cc3ccc(O)cc3)C(=O)O)cc21 [Example 2-375, (S)-2-[(12-cyclohexyl-3-methoxy-6,7-dihydro-5-oxa-7a-azadibenzo[a,e]azulene-9-carbonyl)amino]-3-(4-hydroxyphenyl)propionic acid] | < 0.1
COc1ccc2c(c1)OCCn1c-2c(C2CCCCC2)c2ccc(C(=O)N[C@@H](CCc3ccc(O)cc3)C(=O)O)cc21 [Example 2-376, (S)-2-[(12-cyclohexyl-3-methoxy-6,7-dihydro-5-oxa-7a-azadibenzo[a,e]azulene-9-carbonyl)amino]-4-(4-hydroxyphenyl)butyric acid] | < 0.1
COC(=O)[C@H](Cc1ccc(OCC(=O)OC(C)(C)C)cc1)NC(=O)c1ccc2c(C3CCCCC3)c3n(c2c1)CCOc1cc(OC)ccc1-3 [Example 2-377, methyl (S)-3-(4-tert-butoxycarbonylmethoxyphenyl)-2-[(12-cyclohexyl-3-methoxy-6,7-dihydro-5-oxa-7a-azadibenzo[a,e]azulene-9-carbonyl)amino]propionate] | < 0.1
COC(=O)[C@H](Cc1ccc(OCC(=O)O)cc1)NC(=O)c1ccc2c(C3CCCCC3)c3n(c2c1)CCOc1cc(OC)ccc1-3 [Example 2-378, methyl (S)-3-(4-carboxymethoxyphenyl)-2-[(12-cyclohexyl-3-methoxy-6,7-dihydro-5-oxa-7a-azadibenzo[a,e]azulene-9-carbonyl)amino]propionate] | < 0.1
COC(=O)C(CN1CCC(O)CC1)NC(=O)c1ccc2c(C3CCCCC3)c3n(c2c1)CCOc1cc(OC)ccc1-3 (stereo not shown) [Example 2-379, methyl 2-[(12-cyclohexyl-3-methoxy-6,7-dihydro-5-oxa-7a-azadibenzo[a,e]azulene-9-carbonyl)amino]-3-(4-hydroxypiperidin-1-yl)propionate monohydrochloride] | 0.1 to 1
COc1ccc2c(c1)OCCn1c-2c(C2CCCCC2)c2ccc(C(=O)NC(C)(C)c3nc4cc(F)ccc4[nH]3)cc21 [Example 2-380, N-[1-(5-fluoro-1H-benzimidazol-2-yl)-1-methylethyl]-12-cyclohexyl-3-methoxy-6,7-dihydro-5-oxa-7a-azadibenzo[a,e]azulene-9-carboxamide] | < 0.1
COc1ccc2c(c1)OCCn1c-2c(C2CCCCC2)c2ccc(C(=O)N[C@@H](Cc3ccc(O)cc3)c3nccs3)cc21 [Example 2-381, N—(S)-[2-(4-hydroxyphenyl)-1-(thiazol-2-yl)ethyl]-12-cyclohexyl-3-methoxy-6,7-dihydro-5-oxa-7a-azadibenzo[a,e]azulene-9-carboxamide] | < 0.1
CNC(=O)COc1ccc(C[C@H](NC(=O)c2ccc3c(C4CCCCC4)c4n(c3c2)CCOc2cc(OC)ccc2-4)C(=O)OC)cc1 [Example 2-382, methyl (S)-2-[(12-cyclohexyl-3-methoxy-6,7-dihydro-5-oxa-7a-azadibenzo[a,e]azulene-9-carbonyl)amino]-3-[4-(methylcarbamoylmethoxy)phenyl]propionate] | < 0.1
COC(=O)[C@H](Cc1ccc(OCC(=O)N(C)C)cc1)NC(=O)c1ccc2c(C3CCCCC3)c3n(c2c1)CCOc1cc(OC)ccc1-3 [Example 2-383, methyl (S)-2-[(12-cyclohexyl-3-methoxy-6,7-dihydro-5-oxa-7a-azadibenzo[a,e]azulene-9-carbonyl)amino]-3-[4-(dimethylcarbamoylmethoxy)phenyl]propionate] | < 0.1
CNC(=O)[C@H](Cc1ccc(NC(=O)OC)cc1)NC(=O)c1ccc2c(C3CCCCC3)c3n(c2c1)CCOc1cc(OC)ccc1-3 [Example 2-384, methyl (4-{(S)-2-[(12-cyclohexyl-3-methoxy-6,7-dihydro-5-oxa-7a-azadibenzo[a,e]azulene-9-carbonyl)amino]-2-(methylcarbamoyl)ethyl}phenyl)carbamate] | < 0.1
COc1ccc2c(c1)OCCn1c-2c(C2CCCCC2)c2ccc(C(=O)NC(C)(C)c3nc4cc(C(=O)N5CCC(O)CC5)ccc4[nH]3)cc21 [Example 2-386, N-{1-[5-(4-hydroxypiperidine-1-carbonyl)-1H-benzimidazol-2-yl]-1-methylethyl}-12-cyclohexyl-3-methoxy-6,7-dihydro-5-oxa-7a-azadibenzo[a,e]azulene-9-carboxamide] | < 0.1

Same assay, conditions: 25° C., 90 min; [5,6-3H]UTP incorporation into RNA; read-out: HCV polymerase inhibitory activity IC50

SMILES | IC50 [µM]
COc1ccc2c(c1)OCCn1c-2c(C2CCCCC2)c2ccc(C(=O)N[C@@H](Cc3c[nH]c4ccc(O)cc34)c3csc(C)n3)cc21 [Example 2-385, [(S)-2-(5-hydroxy-1H-indol-3-yl)-1-(2-methylthiazol-4-yl)ethyl]-12-cyclohexyl-3-methoxy-6,7-dihydro-5-oxa-7a-azadibenzo[a,e]azulene-9-carboxamide] | < 0.1
